Results on 35 compounds are retold here after patent US20250074901A1, “NOVEL HETEROARYL COMPOUNDS” (ICAGEN, LLC, priority 2021, published 2025).

The assay addresses T1, Kv7.2 (Homo sapiens, UniProt O43526).
T1 construct: expressed in transfected cells
The assay can be described thus: Activation of Kv7.2 (in vitro assay, concentration response curve). The class given is cell-based. As to conditions: for Emax: Kv7.2 activation max %; for EC50: activation of Kv7.2. The essentials:
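Agonist activity was measured in vitro across a range of compound concentrations and plotted as a sigmoidal concentration–response curve. EC50 is the concentration giving 50% of that compound's own maximal response (Emax).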

By Emax is commonly meant the size of the effect at its maximum, as opposed to the concentration needed. One may read the EC50 as the concentration giving half of the maximal effect. In the case of `O=C(NCc1ccnc(OC(F)F)c1)NCC1(F)CCC1` [Example 40, 1-[[2-(difluoromethoxy)pyridin-4-yl]methyl]-3-[(1-fluorocyclobutyl)methyl]urea], the Emax is 58% and a half-maximal response (EC50) required 640 nM.
The like results for `O=C(NCc1ccnc(-n2cnc(C(F)(F)F)c2)c1)NCC1CCC1` [Example 41, 1-(cyclobutylmethyl)-3-[[2-[4-(trifluoromethyl)imidazol-1-yl]pyridin-4-yl]methyl]urea] were, in that order, 40% and 1130 nM.
For `O=C(NCc1ccnc(OC(F)F)c1)N[C@H]1C[C@H](C(F)(F)F)C1` [Example 42, 1-[[2-(difluoromethoxy)pyridin-4-yl]methyl]-3-[(1r,3r)-3-(trifluoromethyl)cyclobutyl]urea] the same measures were 58% and 70 nM.
On to `O=C(NCc1ccnc(OCC(F)(F)F)c1)NC1CCCC1` [Example 43, 1-cyclopentyl-3-[[2-(2,2,2-trifluoroethoxy)pyridin-4-yl]methyl]urea], for which the Emax was 75% and the EC50 is 140 nM.
The like results for `CC(C)(C)CC1(NC(=O)NCc2ccnc(OC(F)F)c2)CC1` [Example 44, 1-[[2-(difluoromethoxy)pyridin-4-yl]methyl]-3-[1-(2,2-dimethylpropyl)cyclopropyl]urea] were, in that order, 75% and 480 nM.
Compound `O=C(NCc1ccnc(OC(F)F)c1)NC1CCC1` [Example 45, 1-cyclobutyl-3-[[2-(difluoromethoxy)pyridin-4-yl]methyl]urea] registered an Emax of 62% and an EC50 of 1230 nM.
For `O=C(NCc1ccnc(OC(F)F)c1)NCC1CCCC1` [Example 46, 1-(cyclopentylmethyl)-3-[[2-(difluoromethoxy)pyridin-4-yl]methyl]urea] the same measures were 64% and 210 nM.
For `O=C(NCc1ccnc(OC(F)F)c1)NC12CC(C1)C2` [Example 47, 1-(1-bicyclo[1.1.1]pentanyl)-3-[[2-(difluoromethoxy)pyridin-4-yl]methyl]urea] the same measures were 65% and 1510 nM.
The like results for `O=C(NCc1ccnc(OC(F)F)c1)NC12CCC(F)(CC1)CC2` [Example 48, 1-[[2-(difluoromethoxy)pyridin-4-yl]methyl]-3-(4-fluoro-1-bicyclo[2.2.2]octanyl)urea] were, in that order, 54% and 160 nM.
As to `COC12CC(NC(=O)NCc3ccnc(OC(F)F)c3)(C1)C2` [Example 49, 1-[[2-(difluoromethoxy)pyridin-4-yl]methyl]-3-(3-methoxy-1-bicyclo[1.1.1]pentanyl)urea], the Emax was found to be 48% and the EC50 turned out to be 1830 nM.
The like results for `O=C(NCc1ccnc(OC(F)F)c1)NC1(C2CCC2)CC1` [Example 50, 1-(1-cyclobutylcyclopropyl)-3-[[2-(difluoromethoxy)pyridin-4-yl]methyl]urea] were, in that order, 56% and 300 nM.
For `O=C(NCc1ccnc(OCC2CCC2)c1)N[C@H]1C[C@H](C(F)(F)F)C1` [Example 54, 1-[[2-(cyclobutylmethoxy)pyridin-4-yl]methyl]-3-[(1r,3r)-3-(trifluoromethyl)cyclobutyl]urea] the same measures were 62% and 150 nM.
The like results for `O=C(NCc1ccnc(OCC2CC2)c1)N[C@H]1C[C@H](C(F)(F)F)C1` [Example 55, 1-[[2-(cyclopropylmethoxy)pyridin-4-yl]methyl]-3-[(1r,3r)-3-(trifluoromethyl)cyclobutyl]urea] were, in that order, 51% and 300 nM.
The compound `O=C(NCc1ccnc(OCC(F)F)c1)N[C@H]1C[C@H](C(F)(F)F)C1` [Example 56, 1-[[2-(2,2-difluoroethoxy)pyridin-4-yl]methyl]-3-[(1r,3r)-3-(trifluoromethyl)cyclobutyl]urea] displayed an Emax of 56% and an EC50 of 340 nM.
For `CC(F)(F)c1cc(CNC(=O)N[C@H]2C[C@H](C(F)(F)F)C2)ccn1` [Example 57, 1-[[2-(1,1-difluoroethyl)pyridin-4-yl]methyl]-3-[(1r,3r)-3-(trifluoromethyl)cyclobutyl]urea] the same measures were 60% and 610 nM.
`O=C(NCc1ccnc(C(F)(F)F)c1)N[C@H]1C[C@H](C(F)(F)F)C1` [Example 58, 1-[(1r,3r)-3-(trifluoromethyl)cyclobutyl]-3-[[2-(trifluoromethyl)pyridin-4-yl]methyl]urea] gave an Emax of 42% and an EC50 of 340 nM.
The like results for `CCC1CC(NC(=O)NCc2ccnc(OC(F)F)c2)C1` (stereo not shown) [Example 60, 1-[[2-(difluoromethoxy)pyridin-4-yl]methyl]-3-(3-ethylcyclobutyl)urea] were, in that order, 77% and 140 nM.
`O=C(NCc1ccnc(OC(F)F)c1)NCC1CC(C(F)(F)F)C1` (stereo not shown) [Example 62, 1-[[2-(difluoromethoxy)pyridin-4-yl]methyl]-3-[[3-(trifluoromethyl)cyclobutyl]methyl]urea] gave an Emax of 43% and an EC50 of 750 nM.
The like results for `N#CCOc1cc(CNC(=O)N[C@H]2C[C@H](C(F)(F)F)C2)ccn1` [Example 63, 1-[[2-(cyanomethoxy)pyridin-4-yl]methyl]-3-[(1r,3r)-3-(trifluoromethyl)cyclobutyl]urea] were, in that order, 66% and 250 nM.
For `O=C(NCc1ccnc(CC(F)(F)F)c1)N[C@H]1C[C@H](C(F)(F)F)C1` [Example 64, 1-[[2-(2,2,2-trifluoroethyl)pyridin-4-yl]methyl]-3-[(1r,3r)-3-(trifluoromethyl)cyclobutyl]urea] the same measures were 70% and 340 nM.
For `CC1CC(NC(=O)NCc2ccnc(OC(F)F)c2)C1` (stereo not shown) [Example 65, 1-[[2-(difluoromethoxy)pyridin-4-yl]methyl]-3-(3-methylcyclobutyl)urea] the same measures were 76% and 450 nM.
For the compound `C#CC1CC(NC(=O)NCc2ccnc(OC(F)F)c2)C1` (stereo not shown) [Example 66, 1-[[2-(difluoromethoxy)pyridin-4-yl]methyl]-3-(3-ethynylcyclobutyl) urea], the maximal effect (Emax) was 56% and the EC50 was found to be 530 nM.
The like results for `O=C(NCc1ccnc(OC(F)F)c1)N[C@H]1C[C@H](F)C1` [Example 67, 1-[[2-(difluoromethoxy)pyridin-4-yl]methyl]-3-((1r,3r)-3-fluorocyclobutyl)urea] were, in that order, 52% and 1870 nM.
For `O=C(NCc1ccnc(OC(F)F)c1)NC12CCC(C(F)(F)F)(CC1)CC2` [Example 68, 1-[[2-(difluoromethoxy)pyridin-4-yl]methyl]-3-[4-(trifluoromethyl)-1-bicyclo[2.2.2]octanyl]urea] the same measures were 66% and 2550 nM.
Compound `O=C(NCc1ccnc(OCC(F)(F)F)c1)NCC1CC(C(F)(F)F)C1` (stereo not shown) [Example 71, 1-[[2-(2,2,2-trifluoroethoxy)pyridin-4-yl]methyl]-3-[[3-(trifluoromethyl)cyclobutyl]methyl]urea] came in with an Emax of 53% and an EC50 of 230 nM.
The like results for `O=C(NCc1ccnc(OCC(F)(F)F)c1)NCC12CC(F)(C1)C2` [Example 75, 1-[(3-fluoro-1-bicyclo[1.1.1]pentanyl)methyl]-3-[[2-(2,2,2-trifluoroethoxy)pyridin-4-yl]methyl]urea] were, in that order, 40% and 600 nM.
For `O=C(NCc1ccnc(OC(F)F)c1)N[C@@H]1CC[C@H]2CCC[C@H]21` [Example 76, 1-[(1R,3aR,6aR)-1,2,3,3a,4,5,6,6a-octahydropentalen-1-yl]-3-[[2-(difluoromethoxy)pyridin-4-yl]methyl]urea] the same measures were 79% and 20 nM.
The like results for `O=C(NCc1ccnc(OC(F)F)c1)NC1CC(C2CC2)C1` (stereo not shown) [Example 77, 1-(3-cyclopropylcyclobutyl)-3-[[2-(difluoromethoxy)pyridin-4-yl]methyl]urea] were, in that order, 62% and 90 nM.
The compound `O=C(NCc1ccnc(OC(F)F)c1)NC1CC2CCCC2C1` (stereo not shown) [Example 78, 1-(1,2,3,3a,4,5,6,6a-octahydropentalen-2-yl)-3-[[2-(difluoromethoxy)pyridin-4-yl]methyl]urea] had an Emax of 62% and an EC50 of 20 nM.
On to `O=C(NCc1ccnc(OC(F)F)c1)NC12CCC(F)(CC1)CC2O` (stereo not shown) [Example 82, 1-[[2-(difluoromethoxy)pyridin-4-yl]methyl]-3-(4-fluoro-2-hydroxy-1-bicyclo[2.2.2]octanyl)urea], for which the Emax is 48% and a half-maximal effect (EC50) was put at 1030 nM.
The like results for `COc1cccc(NC(=O)NCc2ccnc(OC(F)F)c2)c1` [Example 83, 1-[[2-(difluoromethoxy)pyridin-4-yl]methyl]-3-(3-methoxyphenyl)urea] were, in that order, 45% and 2470 nM.
For `O=C(NCc1ccnc(OC(F)F)c1)Nc1cccc(Cl)n1` [Example 84, 1-(6-chloropyridin-2-yl)-3-[[2-(difluoromethoxy)pyridin-4-yl]methyl]urea] the same measures were 42% and 210 nM.
The like results for `O=C(NC(CO)c1ccnc(OC(F)F)c1)NC12CCC(F)(CC1)CC2` (stereo not shown) [Example 85, 1-[1-[2-(difluoromethoxy)pyridin-4-yl]-2-hydroxyethyl]-3-(4-fluoro-1-bicyclo[2.2.2]octanyl)urea] were, in that order, 74% and 420 nM.
Compound `O=C(NCc1ccnc(OC(F)F)c1)NC[C@H]1C[C@@H](C(F)(F)F)C1` [Example 87, 1-[[2-(difluoromethoxy)pyridin-4-yl]methyl]-3-[[3-(1r,3r)-(trifluoromethyl)cyclobutyl]methyl]urea] yielded an Emax of 40% and an EC50 of 850 nM.
For `CC(F)COc1cc(CNC(=O)NC23CCC(F)(CC2)CC3)ccn1` (stereo not shown) [Example 88, 1-(4-fluoro-1-bicyclo[2.2.2]octanyl)-3-[[2-(2-fluoropropoxy)pyridin-4-yl]methyl]urea] the same measures were 43% and 440 nM.
